Results as given in US20090170759A1, “NEUROPROTECTIVE PEPTIDES” (priority 2007, published 2009).
“Also recorded” adds a separate entry of the source.

Tests used:
[1] = test system: PC-12 cells; assay: Glutamate toxicity in PC-12 cells (trypan blue exclusion); type: cell-based, rat
Protocol: […] cells (from a rat Pheochromocytoma) were cultured on poly-D-Lysine coated tissue culture plastic in DMEM containing 10% FBS and 5% Horse serum. To induce the neuronal phenotype in PC-12 cells, serum was removed and the cells were treated with NGF (50 ng/ml). Cells were grown for 7 days in the presence of the NGF then used for experiments.
PC-12 cells were cultured as described above. 24 hr prior to insult, cells were treated with rhEPO at concentrations ranging from 1 pm to 1 nm. On the day of the experiment, cells were exposed to 200 μM glutamate for 30 min. Cells were then washed 2 times with fresh media to remove the glutamate and cultured in fresh media containing NGF but no EPO. After 24 hr cells were assayed for viability using a trypan blue exclusion assay. Briefly, media was removed and the cells were incubated in 0.4% Trypan Blue for 5 min. Cells were then washed gently with PBS, then fixed with 10% formalin. Cell viability was determined by counting the total number of cells vs. the number of trypan blue positive (dead) cells.

[2] = test system: rat cerebral cortical neurons; assay: Glutamate toxicity assay in primary cortical cultures; type: cell-based; details: pretreatment 24 h prior to 100 μM glutamate
Excerpt: Dissociated hippocampal and cortical cell cultures were established from embryonic day 18 rat fetuses as previously described (Mattson et al., 1994). Briefly, fetuses were removed via cesarean section from pregnant moms (Sprague-Dawley) anesthetized with halothane according to the AVMA Panel on Euthanasia. Pups were decapitated and the brains were removed and placed in HEPES-buffered Hank's Balanced Salt solution (HBSS; Gibco). The hippocampi and cortices were dissected out and pooled according to tissue-type. Tissue was trypsinized for 15 min (1 mg/ml trypsin-HBSS; Worthington), rinsed with fresh HBSS, incubated in trypsin inhibitor (1 mg/ml; Sigma) for 5 min, rinsed again with fresh HBSS and then triturated in 1 ml fresh HBSS with a fire-polished glass pipette. Dissociated cells were seeded at 30,000 cells/well onto poly-D-lysine coated 96-well plates (Collaborative BioScience). […]
Cortical cells were seeded at 200,000 cells/dish onto polyethylenimine-coated 35 mm culture dishes. […] Cell survival was measured by counting viable cells in each field pre- and post-experimental treatment. […] Data were expressed as percent of control (vehicle; mean±SD).

[3] = Plasma determinations by EPO ELISA; type: in vivo, rat; details: terminal sample
Excerpt: Plasma Determinations: Blood samples were collected from each rat via the orbital sinus at the time of sacrifice. Plasma was separated out, frozen and analyzed by EPO ELISA for determination of plasma concentration (U/ml).

[4] = test system: rat hippocampal cultures; assay: Neurite outgrowth assay (MAP2-FITC immunofluorescence), hippocampal cultures; type: cell-based
Excerpt: Dissociated hippocampal and cortical cell cultures were established from embryonic day 18 rat fetuses as previously described (Mattson et al., 1994). Briefly, fetuses were removed via cesarean section from pregnant moms (Sprague-Dawley) anesthetized with halothane according to the AVMA Panel on Euthanasia. Pups were decapitated and the brains were removed and placed in HEPES-buffered Hank's Balanced Salt solution (HBSS; Gibco). The hippocampi and cortices were dissected out and pooled according to tissue-type. Tissue was trypsinized for 15 min (1 mg/ml trypsin-HBSS; Worthington), rinsed with fresh HBSS, incubated in trypsin inhibitor (1 mg/ml; Sigma) for 5 min, rinsed again with fresh HBSS and then triturated in 1 ml fresh HBSS with a fire-polished glass pipette. Dissociated cells were seeded at 30,000 cells/well onto poly-D-lysine coated 96-well plates (Collaborative BioScience). Each well contained 100 μl of Eagle's Minimal Essential Media (MEM; Gibco) supplemented with 26 mM NaHCO3 (Sigma), 56 mM glucose (Sigma), 15 mM KCl (Sigma), 1 mM sodium pyruvate (Sigma), 1.1 mM L-glutamine (Sigma), 10% (v/v) heat-inactivated fetal bovine serum (Hyclone), and 0.001% gentamicin sulfate (Sigma) (pH 7.4). Cells were allowed to attach for 24 h in a humidified 37° C. 5% CO2 incubator before experimental treatment. The culture media was aspirated and exchanged with fresh media every three days.
Twenty-four hours after plating, cultures were treated with vehicle (PBS+0.1% BSA), 100 ng of various growth factors (brain derived neurotrophic factor (BDNF; Promega), glial-derived neurotrophic factor (GDNF; Promega), nerve growth factor (NGF; Boehringer Mannheim), basic fibroblast growth factor (bFGF; Boehringer Mannheim), insulin-like growth factor-1 (IGF-1; Boehringer Mannheim), neurotrophin-3 (NT3; Calbiochem), neurotrophin-4 (NT4; Calbiochem), ciliary neurotrophic factor (CNTF; Calbiochem), epidermal growth factor (EGF; Calbiochem), vascular endothelial growth factor (VEGF; Calbiochem)), or rhEPO (prepared same as above; 10 fM-10 nM)). Each treatment condition was run in quadruplicate or octuplicate. On the third day in culture, the media was aspirated off and replaced with fresh media and test compound. At one week in culture, the cells were fixed with 10% phosphate-buffered formalin for 15 min, then rinsed with DPBS (Sigma) and placed in blocking serum for 30 min (horse serum; 1:50 dilution in DPBS; Vector Labs). Cultures were rinsed again with DPBS and then incubated in primary antibody for 2 hr (microtubule-associated protein-2 (MAP-2) is a selective marker for dendritic processes; anti-mouse monoclonal (Chemicon); 1:1000 dilution of MAP-2 in antibody diluent (Zymed)). Negative control wells were incubated in antibody diluent alone. Background signal was determined by blank wells (cell-free) incubated with or without antibody. Cultures were rinsed again with DPBS and then placed in fluorescein for 1 hr (FITC; anti-mouse IgG; rat adsorbed; 1:50 dilution in DPBS; Vector Labs). Cultures were rinsed a final time with DPBS and then the plates were read on a Cytofluor 4000 fluorescence plate reader. Neurite outgrowth was expressed as percent change from control (vehicle; mean fluorescence±SD).
Dissociated hippocampal and cortical cell cultures were established from embryonic day 18 rat fetuses as previously described (Mattson et al., 1994). Briefly, fetuses were removed via cesarean section from pregnant moms (Sprague-Dawley) anesthetized with halothane according to the AVMA Panel on Euthanasia. Pups were decapitated and the brains were removed and placed in HEPES-buffered Hank's Balanced Salt solution (HBSS; Gibco). The hippocampi and cortices were dissected out and pooled according to tissue-type. […]

Substance: rhEPO: purified, recombinant human EPO (rhEPO), currently formulated and distributed under the trademarks of EPREX, ERYPO, or PROCRIT
- neuroprotective effect at 1 nm, glutamate toxicity ([1]; 1 nm): no significant effect
- cell survival after glutamate (in words) ([1]; 1 to 10 pm given 24 hours prior to glutamate (200 um), p<0.001): significantly increased cell survival
- cell death induced by glutamate toxicity (in words) ([1]; 24 hr pre-treatment): significant decrease in cell death
- peak concentration for the neuroprotective effect, glutamate toxicity ([1]; 24 hr pre-treatment, 200 μM glutamate): 10 pm
- maximal increase of cell survival over parallel cultures treated with glutamate alone [2]: approximately 200%
- neuronal survival after glutamate (in words) [2]: significant increase in neuronal survival; also recorded: protects rat cerebral cortical neurons against glutamate toxicity
- plasma concentrations, Study I ([3]; continuous infusion): correlated with the protective effect
- plasma concentrations, Study II ([3]; single iv bolus 1000, 2500 or 5000 U/kg): low in each group
- neurite outgrowth response over control, hippocampal cultures ([4]; Example 3, one week in culture): 12-44%
- neurite outgrowth in rat hippocampal cultures (in words) ([4]; figure legends): promotes neurite outgrowth
- neurite outgrowth promoting activity in hippocampus compared with growth factors ([4]; growth factors at 100 ng): superior to several growth factors including BDNF, NGF and VEGF
